Usually pEC50 stands for the negative decadic logarithm of the EC50, by convention in mol/L. In general, AUC(0-inf) refers to the area under the concentration-time curve extrapolated to infinity. The half-life is the time needed for the level to fall by half in the phase considered.

Results on 6 compounds are retold here after ChEMBL document CHEMBL4152367, “Discovery of a Potent Thiazolidine Free Fatty Acid Receptor 2 Agonist with Favorable Pharmacokinetic Properties” (J Med Chem, 2018).

pEC50: −log10 of the molar value. The source made the active and inactive calls.

The target of data set [1] is T1, Free fatty acid receptor 2 (Homo sapiens) (UniProt O15552).
T1 sequence (whole entry): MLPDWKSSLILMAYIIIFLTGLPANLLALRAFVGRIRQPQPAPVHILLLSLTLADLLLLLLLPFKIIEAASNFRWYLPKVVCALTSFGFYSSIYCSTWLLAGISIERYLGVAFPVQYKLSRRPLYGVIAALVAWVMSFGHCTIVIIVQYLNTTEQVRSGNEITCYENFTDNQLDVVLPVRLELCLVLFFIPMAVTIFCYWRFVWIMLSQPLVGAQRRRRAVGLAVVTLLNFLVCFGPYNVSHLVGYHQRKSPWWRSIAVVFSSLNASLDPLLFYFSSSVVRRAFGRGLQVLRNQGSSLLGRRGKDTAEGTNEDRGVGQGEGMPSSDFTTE
The experiment in a line: Agonist activity to human FFA2R expressed in HEK293T cells assessed as induction beta-arrestin-2 recruitment at 100 uM after 10 mins by BRET assay relative to control. In kind it is functional, cell-based. (Recruitment of arrestin is a read-out of receptor activation apart from second messengers.)

In data set [2] the target is T1, Free fatty acid receptor 2 (Homo sapiens). The data set can be described thus: Agonist activity at human FFA2R expressed in Flp-InT-REx 293 cells assessed as reduction of forskolin-induced cAMP production up to 30 uM after 30 mins by TR-FRET assay relative to control. It is filed as functional, cell-based. (Cyclic AMP is a second messenger, typically raised through Gs and lowered through Gi signalling.)

For data set [3] the target is unchanged. The experiment in a line: Agonist activity to human FFA2R expressed in HEK293T cells assessed as induction beta-arrestin-2 recruitment up to 30 uM after 10 mins by BRET assay relative control. In kind it is functional, cell-based.
Data set [4] deals with T2, Free fatty acid receptor 2 (Mus musculus, UniProt Q8VCK6).
T2 sequence (Q8VCK6 whole entry): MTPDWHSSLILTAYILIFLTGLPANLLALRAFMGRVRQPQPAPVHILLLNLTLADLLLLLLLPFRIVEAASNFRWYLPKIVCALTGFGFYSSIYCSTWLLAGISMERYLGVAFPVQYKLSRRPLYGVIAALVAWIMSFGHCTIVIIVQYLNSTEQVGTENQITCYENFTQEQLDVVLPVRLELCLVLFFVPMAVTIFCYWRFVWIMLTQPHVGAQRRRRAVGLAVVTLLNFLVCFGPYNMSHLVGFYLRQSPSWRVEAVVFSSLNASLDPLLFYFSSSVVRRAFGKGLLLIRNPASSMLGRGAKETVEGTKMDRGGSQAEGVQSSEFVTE
The data set can be described thus: Agonist activity at FFA2R in mouse mature adipocytes assessed as inhibition of isoproterenol-induced glycerol production.

Data set [5] in a line: AUC (0 to infinity) in Balb/c mouse at 5 mg/kg, ip by HPLC-MS/MS analysis. The settings on record: in vivo. Also on record: dose 5 mg/kg, time infinity, route intraperitoneal. It is filed as ADME, organism-based.
A short description of data set [6]: Half life in Balb/c mouse at 5 mg/kg, ip by HPLC-MS/MS analysis. In kind it is ADME, organism-based. The note with it: in vivo.

On to `COc1ccccc1-c1ccc(C(=O)N2[C@H](C(=O)O)CS[C@@H]2C(C)(C)C)cc1`, for which the Activity in data set [1] came out at 50%. For the same compound, the result in data set [2] was inactive.

`COc1ccccc1-c1ccc(C(=O)N2[C@H](C(=O)O)CO[C@@H]2C(C)(C)C)cc1`: the outcome in data set [3] and in data set [2] was inactive.

As for `Cc1noc(C)c1-c1ccc(C(=O)N2[C@@H](c3ccccn3)SC[C@H]2C(=O)O)cc1`, the outcome in data set [2] was inactive.

In the case of `CCC(=O)O` [PROPIONIC ACID], in data set [4], the pEC50 is 3.60.

In turn, `COc1ccccc1-c1ccc(C(=O)N2[C@@H](c3ccccc3Cl)CC[C@H]2C(=O)O)cc1` showed an area under the curve AUC(0-inf) in data set [5] of 417 ng·h/mL. In data set [6], this compound displayed a half-life of 50 min.

On to `O=C(O)[C@@H]1CS[C@H](c2ccccc2Cl)N1C(=O)c1ccccc1`, for which the result in data set [3] and in data set [2] was inactive.
